Data published in patent publication US10829501B2 (BRISTOL-MYERS SQUIBB COMPANY, priority 2016, dated 2020).

What follows are compounds tested against ROCK2 (Homo sapiens, UniProt O75116) (assay: ROCK2 kinase inhibition assay (LABCHIP 3000 Reader, FITC peptide substrate);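 also: rho kinase reaction read by separating phosphorylated from unphosphorylated peptide on chip, with inhibition of kinase activity computed per concentration across a dose-response series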).
Sequence of ROCK2 (O75116 whole entry, species assumed): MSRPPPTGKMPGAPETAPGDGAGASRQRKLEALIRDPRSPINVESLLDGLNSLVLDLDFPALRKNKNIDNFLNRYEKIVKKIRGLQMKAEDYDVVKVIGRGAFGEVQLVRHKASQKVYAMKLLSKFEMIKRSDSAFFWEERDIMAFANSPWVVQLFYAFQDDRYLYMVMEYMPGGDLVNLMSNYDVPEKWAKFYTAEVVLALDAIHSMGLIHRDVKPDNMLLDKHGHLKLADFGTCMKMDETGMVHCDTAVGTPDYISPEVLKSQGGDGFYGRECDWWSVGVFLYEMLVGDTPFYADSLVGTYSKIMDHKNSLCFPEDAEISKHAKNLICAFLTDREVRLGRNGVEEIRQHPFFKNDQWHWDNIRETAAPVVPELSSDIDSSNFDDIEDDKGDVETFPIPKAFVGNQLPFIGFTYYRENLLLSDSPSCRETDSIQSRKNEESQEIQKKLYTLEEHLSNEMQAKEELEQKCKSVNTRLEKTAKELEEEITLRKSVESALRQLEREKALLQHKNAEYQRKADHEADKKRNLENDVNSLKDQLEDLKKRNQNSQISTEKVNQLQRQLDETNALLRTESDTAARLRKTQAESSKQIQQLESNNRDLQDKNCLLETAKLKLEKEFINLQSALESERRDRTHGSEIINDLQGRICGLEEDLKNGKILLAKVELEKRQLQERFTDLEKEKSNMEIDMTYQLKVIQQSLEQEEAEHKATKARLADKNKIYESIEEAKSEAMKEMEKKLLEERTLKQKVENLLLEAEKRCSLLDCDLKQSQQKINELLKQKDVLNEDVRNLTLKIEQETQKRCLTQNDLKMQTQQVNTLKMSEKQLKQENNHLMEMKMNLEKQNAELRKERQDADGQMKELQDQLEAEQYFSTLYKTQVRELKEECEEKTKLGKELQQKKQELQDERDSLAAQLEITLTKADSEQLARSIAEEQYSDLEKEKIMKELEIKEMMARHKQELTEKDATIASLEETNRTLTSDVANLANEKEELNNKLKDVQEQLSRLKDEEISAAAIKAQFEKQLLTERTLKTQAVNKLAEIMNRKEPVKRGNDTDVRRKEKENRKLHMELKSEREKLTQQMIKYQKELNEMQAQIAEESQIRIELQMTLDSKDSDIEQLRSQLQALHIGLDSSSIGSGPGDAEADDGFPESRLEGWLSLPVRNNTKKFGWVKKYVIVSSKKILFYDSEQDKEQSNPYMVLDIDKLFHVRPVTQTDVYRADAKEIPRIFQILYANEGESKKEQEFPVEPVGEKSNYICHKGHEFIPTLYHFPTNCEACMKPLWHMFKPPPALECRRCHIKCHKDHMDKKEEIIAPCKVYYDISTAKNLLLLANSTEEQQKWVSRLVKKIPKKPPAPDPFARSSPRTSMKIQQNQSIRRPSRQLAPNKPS

IC50 [nM]	SMILES
50 to 250	NC(=O)c1cccnc1O[C@H]1CC2(C[C@H](NC(=O)c3cnc4cc(C(F)(F)F)ccn34)C2)C1 (stereo partly drawn) [Example 334, N-((aR)-6-((3-carbamoylpyridin-2-yl)oxy)spiro[3.3]heptan-2-yl)-7-(trifluoromethyl)imidazo[1,2-a]pyridine-3-carboxamide]
5 to 50	Cc1ccn2c(C(=O)N[C@H]3CC4(C3)C[C@H](Oc3ncccc3C(N)=O)C4)cnc2c1 (stereo partly drawn) [Example 335, N-((aR)-6-((3-carbamoylpyridin-2-yl)oxy)spiro[3.3]heptan-2-yl)-7-methylimidazo[1,2-a]pyridine-3-carboxamide]
5 to 50	CN1CCN(c2ccn3c(C(=O)N[C@H]4CC5(C4)C[C@H](Oc4ncccc4C(N)=O)C5)cnc3c2)CC1 (stereo partly drawn) [Example 336, N-((aR)-6-((3-carbamoylpyridin-2-yl)oxy)spiro[3.3]heptan-2-yl)-7-(4-methylpiperazin-1-yl)imidazo[1,2-a]pyridine-3-carboxamide]
5 to 50	Cn1cc(-c2ccn3c(C(=O)N[C@H]4CC5(C4)C[C@H](Oc4ncccc4C(N)=O)C5)cnc3c2)cn1 (stereo partly drawn) [Example 337, N-((aR)-6-((3-carbamoylpyridin-2-yl)oxy)spiro[3.3]heptan-2-yl)-7-(1-methyl-1H-pyrazol-4-yl)imidazo[1,2-a]pyridine-3-carboxamide]
5 to 50	NC(=O)c1cccnc1O[C@H]1CC2(C[C@H](NC(=O)c3cnn4cc(OC5CCS(=O)(=O)CC5)ccc34)C2)C1 (stereo partly drawn) [Example 339, N-((aR)-6-((3-carbamoylpyridin-2-yl)oxy)spiro[3.3]heptan-2-yl)-6-((1,1-dioxidotetrahydro-2H-thiopyran-4-yl)oxy)pyrazolo[1,5-a]pyridine-3-carboxamide]
5 to 50	NC(=O)c1cccnc1O[C@H]1CC2(C[C@H](NC(=O)c3cnn4c(C5CC5)c(OCCOCC(F)(F)F)ccc34)C2)C1 (stereo partly drawn) [Example 340, N-((aR)-6-((3-carbamoylpyridin-2-yl)oxy)spiro[3.3]heptan-2-yl)-7-cyclopropyl-6-(2-(2,2,2-trifluoroethoxy)ethoxy)pyrazolo[1,5-a]pyridine-3-carboxamide]
< 5	NC(=O)c1cccnc1O[C@H]1CC2(C[C@H](NC(=O)c3cnn4c(C5CC5)c(OC(CF)CF)ccc34)C2)C1 (stereo partly drawn) [Example 341, N-((aR)-6-((3-carbamoylpyridin-2-yl)oxy)spiro[3.3]heptan-2-yl)-7-cyclopropyl-6-((1,3-difluoropropan-2-yl)oxy)pyrazolo[1,5-a]pyridine-3-carboxamide]
< 5	NC(=O)c1cccnc1O[C@H]1CC2(C[C@H](NC(=O)c3cnn4c(C5CC5)c(OCC5CCCO5)ccc34)C2)C1 (stereo partly drawn) [Example 342, N-((aR)-6-((3-carbamoylpyridin-2-yl)oxy)spiro[3.3]heptan-2-yl)-7-cyclopropyl-6-((tetrahydrofuran-2-yl)methoxy)pyrazolo[1,5-a]pyridine-3-carboxamide]
5 to 50	NC(=O)c1cccnc1O[C@H]1CC2(C[C@H](NC(=O)c3cnn4c(C5CC5)c(OC5COC5)ccc34)C2)C1 (stereo partly drawn) [Example 343, N-((aR)-6-((3-carbamoylpyridin-2-yl)oxy)spiro[3.3]heptan-2-yl)-7-cyclopropyl-6-(oxetan-3-yloxy)pyrazolo[1,5-a]pyridine-3-carboxamide]
5 to 50	NC(=O)c1cccnc1O[C@H]1CC2(C[C@H](NC(=O)c3cnn4c(C5CC5)c(OCC5CCO5)ccc34)C2)C1 (stereo partly drawn) [Example 344, N-((aR)-6-((3-carbamoylpyridin-2-yl)oxy)spiro[3.3]heptan-2-yl)-7-cyclopropyl-6-(oxetan-2-ylmethoxy)pyrazolo[1,5-a]pyridine-3-carboxamide]
250 to 2500	NC(=O)c1cccnc1O[C@H]1CC2(C[C@H](NC(=O)c3cnc4cnccn34)C2)C1 (stereo partly drawn) [Example 345, N-((aR)-6-((3-carbamoylpyridin-2-yl)oxy)spiro[3.3]heptan-2-yl)imidazo[1,2-a]pyrazine-3-carboxamide]
50 to 250	NC(=O)c1cccnc1O[C@H]1CC2(C[C@H](NC(=O)c3cnc4c(C(F)(F)F)cccn34)C2)C1 (stereo partly drawn) [Example 346, N-((aR)-6-((3-carbamoylpyridin-2-yl)oxy)spiro[3.3]heptan-2-yl)-8-(trifluoromethyl)imidazo[1,2-a]pyridine-3-carboxamide]
5 to 50	COC(=O)N1CC(Oc2ccc3c(C(=O)N[C@H]4CC5(C4)C[C@H](Oc4ncccc4C(N)=O)C5)cnn3c2)C1 (stereo partly drawn) [Example 347, methyl 3-((3-(((aR)-6-((3-carbamoylpyridin-2-yl)oxy)spiro[3.3]heptan-2-yl)carbamoyl)pyrazolo[1,5-a]pyridin-6-yl)oxy)azetidine-1-carboxylate]
50 to 250	COc1ccn2c(C(=O)N[C@H]3CC4(C3)C[C@H](Oc3ncccc3C(N)=O)C4)cnc2c1 (stereo partly drawn) [Example 348, N-((aR)-6-((3-carbamoylpyridin-2-yl)oxy)spiro[3.3]heptan-2-yl)-7-methoxyimidazo[1,2-a]pyridine-3-carboxamide]
5 to 50	NC(=O)c1cccnc1O[C@H]1CC2(C[C@H](NC(=O)c3cnn4cc(N5CC6(COC6)C5)ccc34)C2)C1 (stereo partly drawn) [Example 349, N-((aR)-6-((3-carbamoylpyridin-2-yl)oxy)spiro[3.3]heptan-2-yl)-6-(2-oxa-6-azaspiro[3.3]heptan-6-yl)pyrazolo[1,5-a]pyridine-3-carboxamide]
< 5	NC(=O)c1cccnc1O[C@H]1CC2(C[C@H](NC(=O)c3cnn4c(C5CC5)c(OC5CCS(=O)(=O)CC5)ccc34)C2)C1 (stereo partly drawn) [Example 351, N-((aR)-6-((3-carbamoylpyridin-2-yl)oxy)spiro[3.3]heptan-2-yl)-7-cyclopropyl-6-((1,1-dioxidotetrahydro-2H-thiopyran-4-yl)oxy)pyrazolo[1,5-a]pyridine-3-carboxamide]
5 to 50	CS(=O)(=O)CCCOc1ccc2c(C(=O)N[C@H]3CC4(C3)C[C@H](Oc3ncccc3C(N)=O)C4)cnn2c1C1CC1 (stereo partly drawn) [Example 352, N-((aR)-6-((3-carbamoylpyridin-2-yl)oxy)spiro[3.3]heptan-2-yl)-7-cyclopropyl-6-(3-(methylsulfonyl)propoxy)pyrazolo[1,5-a]pyridine-3-carboxamide]
50 to 250	N#Cc1ccn2c(C(=O)N[C@H]3CC4(C3)C[C@H](Oc3ncccc3C(N)=O)C4)cnc2c1 (stereo partly drawn) [Example 353, N-((aR)-6-((3-carbamoylpyridin-2-yl)oxy)spiro[3.3]heptan-2-yl)-7-cyanoimidazo[1,2-a]pyridine-3-carboxamide]
50 to 250	N#Cc1cccn2c(C(=O)N[C@H]3CC4(C3)C[C@H](Oc3ncccc3C(N)=O)C4)cnc12 (stereo partly drawn) [Example 354, N-((aR)-6-((3-carbamoylpyridin-2-yl)oxy)spiro[3.3]heptan-2-yl)-8-cyanoimidazo[1,2-a]pyridine-3-carboxamide]
50 to 250	NC(=O)c1cccnc1O[C@H]1CC2(C[C@H](NC(=O)c3cnn4cc(N5CC(CO)(CO)C5)ccc34)C2)C1 (stereo partly drawn) [Example 355]
5 to 50	NC(=O)c1cccnc1O[C@H]1CC2(C[C@H](NC(=O)c3cnc4cc(N5CCOCC5)ccn34)C2)C1 (stereo partly drawn) [Example 356, N-((aR)-6-((3-carbamoylpyridin-2-yl)oxy)spiro[3.3]heptan-2-yl)-7-morpholinoimidazo[1,2-a]pyridine-3-carboxamide]
< 5	Cn1cc(-c2ccc3c(C(=O)N[C@H]4CC5(C4)C[C@H](Oc4ncccc4C(N)=O)C5)cnn3c2C2CC2)cn1 (stereo partly drawn) [Example 357, N-((aR)-6-((3-carbamoylpyridin-2-yl)oxy)spiro[3.3]heptan-2-yl)-7-cyclopropyl-6-(1-methyl-1H-pyrazol-4-yl)pyrazolo[1,5-a]pyridine-3-carboxamide]
5 to 50	NC(=O)c1cccnc1O[C@H]1CC2(C[C@H](NC(=O)c3cnc4cc(NCC(F)F)ccn34)C2)C1 (stereo partly drawn) [Example 358, N-((aR)-6-((3-carbamoylpyridin-2-yl)oxy)spiro[3.3]heptan-2-yl)-7-((2,2-difluoroethyl)amino)imidazo[1,2-a]pyridine-3-carboxamide]
50 to 250	[H][C@]1(Oc2ncccc2C(N)=O)C[C@@]2(C[C@H](NC(=O)c3cnc4cc(N5CC(N)C5)ccn34)C2)C1 (stereo partly drawn) [Example 359, 7-(3-aminoazetidin-1-yl)-N-((aR)-6-((3-carbamoylpyridin-2-yl)oxy)spiro[3.3]heptan-2-yl)imidazo[1,2-a]pyridine-3-carboxamide]
50 to 250	[H][C@]1(Oc2ncccc2C(N)=O)C[C@@]2(C[C@H](NC(=O)c3cnc4cc(Cl)ccn34)C2)C1 (stereo partly drawn) [Example 361, N-((aR)-6-((3-carbamoylpyridin-2-yl)oxy)spiro[3.3]heptan-2-yl)-7-chloroimidazo[1,2-a]pyridine-3-carboxamide]
50 to 250	NC(=O)c1cccnc1O[C@H]1CC2(C[C@H](NC(=O)c3cnc4cc(N5CCS(=O)(=O)CC5)ccn34)C2)C1 (stereo partly drawn) [Example 362, N-((aR)-6-((3-carbamoylpyridin-2-yl)oxy)spiro[3.3]heptan-2-yl)-7-(1,1-dioxidothiomorpholino)imidazo[1,2-a]pyridine-3-carboxamide]
< 5	[2H]C([2H])([2H])n1cc(-c2ccc3c(C(=O)N[C@H]4CC5(C4)C[C@H](Oc4ncccc4C(N)=O)C5)nnn3c2)cn1 (stereo partly drawn) [Example 363, N-((aR)-6-((3-carbamoylpyridin-2-yl)oxy)spiro[3.3]heptan-2-yl)-6-(1-(^2H3)methyl-1H-pyrazol-4-yl)-[1,2,3]triazolo[1,5-a]pyridine-3-carboxamide]

SMILES	IC50 [nM]
NC(=O)c1cccnc1O[C@H]1CC2(C[C@H](NC(=O)c3cnn4cc(OC5CCC5)ccc34)C2)C1 (stereo partly drawn) [Example 338, N-((aR)-6-((3-carbamoylpyridin-2-yl)oxy)spiro[3.3]heptan-2-yl)-6-cyclobutoxypyrazolo[1,5-a]pyridine-3-carboxamide]	5 to 50
NC(=O)c1cccnc1O[C@H]1CC2(C[C@H](NC(=O)c3cnn4cc(OC5CC(F)(F)C5)ccc34)C2)C1 (stereo partly drawn) [Example 350, N-((aR)-6-((3-carbamoylpyridin-2-yl)oxy)spiro[3.3]heptan-2-yl)-6-(3,3-difluorocyclobutoxy)pyrazolo[1,5-a]pyridine-3-carboxamide]	5 to 50
NC(=O)c1cccnc1O[C@H]1CC2(C[C@H](NC(=O)c3cnc4cc(OC5CC(F)(F)C5)ccn34)C2)C1 (stereo partly drawn) [Example 360, N-((aR)-6-((3-carbamoylpyridin-2-yl)oxy)spiro[3.3]heptan-2-yl)-7-(3,3-difluorocyclobutoxy)imidazo[1,2-a]pyridine-3-carboxamide]	5 to 50
